Laboratory results published in patent publication US7511041B2, “Fused azole-pyrimidine derivatives” (Bayer Pharmaceuticals Corporation, priority 2002, dated 2009).
Like-named read-outs stand apart in the source and are kept apart here.

Experiments:
[1] = biological target: T1, Recombinant human PI3Kγ (full length human PI3K p110γ) (Homo sapiens, UniProt P48736); test: Kinase assay of PI3Kγ (solid-phase lipid kinase assay); type: biochemical
T1 construct: full length human PI3K p110γ fused with a His6-tag at the C-terminus; His6 (C); purchased ALEXIS BIOCHEMICALS #201-055-C010; host or cells: S. frugiperda 9 insect cells
T1 sequence (P48736 whole entry, the tested form may be a part): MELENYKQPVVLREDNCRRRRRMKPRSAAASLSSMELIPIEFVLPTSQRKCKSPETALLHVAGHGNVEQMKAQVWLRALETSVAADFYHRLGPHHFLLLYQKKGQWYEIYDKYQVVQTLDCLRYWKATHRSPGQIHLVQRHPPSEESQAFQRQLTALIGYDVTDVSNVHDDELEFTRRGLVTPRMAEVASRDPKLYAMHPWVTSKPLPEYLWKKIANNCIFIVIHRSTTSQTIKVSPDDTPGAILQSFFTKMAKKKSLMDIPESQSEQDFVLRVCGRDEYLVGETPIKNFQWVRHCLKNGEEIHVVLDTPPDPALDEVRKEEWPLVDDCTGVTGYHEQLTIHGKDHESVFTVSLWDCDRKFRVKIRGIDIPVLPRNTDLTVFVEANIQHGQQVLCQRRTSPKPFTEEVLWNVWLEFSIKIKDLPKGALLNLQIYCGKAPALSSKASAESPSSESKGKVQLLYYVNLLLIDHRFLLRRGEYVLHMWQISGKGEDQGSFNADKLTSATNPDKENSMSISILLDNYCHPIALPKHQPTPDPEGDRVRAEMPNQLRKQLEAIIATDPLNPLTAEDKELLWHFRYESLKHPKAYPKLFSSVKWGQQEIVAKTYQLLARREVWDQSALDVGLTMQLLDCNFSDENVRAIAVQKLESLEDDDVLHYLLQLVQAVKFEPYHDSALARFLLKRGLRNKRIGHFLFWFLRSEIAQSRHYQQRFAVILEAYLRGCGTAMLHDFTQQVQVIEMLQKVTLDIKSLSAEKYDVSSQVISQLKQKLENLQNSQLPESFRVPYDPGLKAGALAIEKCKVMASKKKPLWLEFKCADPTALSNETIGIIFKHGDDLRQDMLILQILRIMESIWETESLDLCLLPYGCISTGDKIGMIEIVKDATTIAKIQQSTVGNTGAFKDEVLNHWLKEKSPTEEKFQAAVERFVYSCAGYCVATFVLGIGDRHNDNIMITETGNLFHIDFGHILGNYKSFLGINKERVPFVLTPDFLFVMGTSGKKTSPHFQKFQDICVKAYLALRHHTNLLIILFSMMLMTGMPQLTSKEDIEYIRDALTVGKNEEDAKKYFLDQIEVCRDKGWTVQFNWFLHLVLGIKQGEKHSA

[2] = Table 1, isozyme not given, read-out: in vitro
[3] = in vitro PI3K-γ inhibitory activity, class symbols A-D, read-out: in vitro PI3K-gamma
[4] = in vitro PI3K-γ inhibitory activity, class symbols, read-out: in vitro PI3K-gamma

Structure (SMILES)	melting point	IC50 [1, 2]	IC50 [1, 3]	IC50 [1, 4]
Cc1ccc(/C(O)=C/C2=Nc3ccccc3C3=NCCN23)cn1 [Example 1-136]	217 to 219 °C	100 to 500 nM		
O/C(=C\C1=Nc2ncccc2C2=NCCN12)c1ccc2[nH]cnc2c1 [Example 1-159]	> 300 °C	< 100 nM		
Cl.O=C(NC1=Nc2ccccc2C2=NCCN12)c1ccco1 [Example 2-299]	311 °C (dec.)		500 to 2000 nM	
O=C(NC1=Nc2cc(Cl)ccc2C2=NCCN12)c1cccs1 [Example 2-354]	228 °C		500 to 2000 nM	
Cc1nc(C)c(C(=O)NC2=Nc3ccccc3C3=NCCN23)s1.Cl [Example 2-190]	289 to 290 °C			< 100 nM
CC(=O)Nc1ccc(/C(O)=C/C2=Nc3cc(CN4CCOCC4)ccc3C3=NCCN23)cn1 [Example 1-113]	245 °C	100 to 500 nM		
COc1ccc2c(c1OC)N=C(/C=C(\O)c1cccnc1)N1CCN=C21 [Example 1-10]	269 to 270 °C	< 100 nM		
COc1cc(OC)c2c(c1)C1=NCCN1C(NC(=O)c1ccc3[nH]cnc3c1)=N2 [Example 2-72]	210 °C (dec.)			< 100 nM
COc1cccc2c1N=C(NC(=O)c1cccnc1C)N1CCN=C21 [Example 2-116]	204 to 205 °C			100 to 500 nM
O=C(NC1=Nc2ccccc2C2=NCCN12)c1cccc(Cl)c1.O=C(O)C(F)(F)F [Example 2-228]	233 to 235 °C		500 to 2000 nM	
Cl.O=C(NC1=Nc2cc(OCCN3CCOCC3)ccc2C2=NCCN12)c1cccnc1 [Example 2-205]	243 to 247 °C (dec.)		100 to 500 nM	
CC(=O)NC1=Nc2ccccc2C2=NCCN12 [Example 2-326]	189 °C		> 2000 nM	
O/C(=C\C1=Nc2cc(N3CCOCC3)ccc2C2=NCCN12)c1cccnc1 [Example 1-94]	282 °C	100 to 500 nM		
Cl.O=C(NC1=Nc2ccccc2C2=NCCN12)c1cccnc1Cl [Example 2-135]	340 °C (dec.)			100 to 500 nM
O=C(NCCc1ccc2c(n1)N=C(/C=C(\O)c1cccnc1)N1CCN=C21)N1CCCCC1 [Example 1-205]	246 °C	100 to 500 nM		
O=C(NC1=Nc2ccccc2C2=NCCN12)c1cncc(O)c1 [Example 2-138]	273 °C (dec.)			< 100 nM
COc1cccc2c1N=C(NC(=O)c1cncc(O)c1)N1CCN=C21.Cl [Example 2-122]	285 °C (dec.)			< 100 nM
N#CCOc1ccc2c(c1)C1=NCCN1C(NC(=O)c1cccnc1)=N2 [Example 2-213]	209 °C		100 to 500 nM	
CSc1ncccc1C(=O)NC1=Nc2ccccc2C2=NCCN12 [Example 2-288]	233 to 234 °C		> 2000 nM	
O=C(NC1=Nc2ccc(N3CCOCC3)cc2C2=NCCN12)c1cccnc1 [Example 2-347]	244 °C		> 2000 nM	
COc1c(C)cc(C(=O)NC2=Nc3ccccc3C3=NCCN23)cc1C [Example 2-220]	216 to 218 °C		> 2000 nM	
CNc1ccc(C(=O)NC2=Nc3ccccc3C3=NCCN23)cn1 [Example 2-153]	196 to 197 °C			100 to 500 nM
O/C(=C\C1=Nc2ccccc2C2=NCCN12)C(Cl)(Cl)Cl [Example 1-158]	190 °C (dec.)	100 to 500 nM		
Cl.O=C(NC1=Nc2ccccc2C2=NCCN12)c1cccs1 [Example 2-179]	310 °C (dec.)			< 100 nM
COc1cc2c(cc1OC)C1=NCCN1C(NC(C)=O)=N2 [Example 2-343]	240 to 241 °C		> 2000 nM	
Cc1nc2ccccn2c1C(=O)NC1=Nc2ccccc2C2=NCCN12 [Example 2-170]	277 to 279 °C			100 to 500 nM
Nc1ncccc1C(=O)NC1=Nc2ccccc2C2=NCCN12 [Example 2-133]	215 °C (dec.)			100 to 500 nM
